In PubChem BioAssay (NCI):
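1) Cells in 96-well plates. 2) Compound, 48 h, 5 concentrations. 3) Linear interpolation between surrounding doses. 4) Unreached endpoint = highest concentration. Abbreviation: GI50, concentration required for 50% inhibition of growth. TGI is the concentration that stops growth completely.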

What was measured:
Experiment in all cases: inhibition of tumour cell growth, NCI panel, 48 h
SF-295 CNS = system: SF-295 CNS
HCT-116 colon = system: HCT-116 colon
HT29 colon = system: HT29 colon
SR leukemia = system: SR leukemia
DMS 114 small cell lung = system: DMS 114 small cell lung
DLD-1 colon = system: DLD-1 colon
UO-31 renal = system: UO-31 renal
OVCAR-4 ovarian = system: OVCAR-4 ovarian
SW-620 colon = system: SW-620 colon
OVCAR-8 ovarian = system: OVCAR-8 ovarian
LOX IMVI melanoma = system: LOX IMVI melanoma
SF-539 CNS = system: SF-539 CNS
HOP-18 NSCLC = system: HOP-18 NSCLC
NCI-H23 lung = system: NCI-H23 lung
OVCAR-5 ovarian = system: OVCAR-5 ovarian
NCI-H460 lung = system: NCI-H460 lung
K-562 leukemia = system: K-562 leukemia
SF-268 CNS = system: SF-268 CNS
SNB-75 CNS = system: SNB-75 CNS
MALME-3M melanoma = system: MALME-3M melanoma
M14 melanoma = system: M14 melanoma
HOP-62 NSCLC = system: HOP-62 NSCLC
SK-MEL-2 melanoma = system: SK-MEL-2 melanoma
M19-MEL melanoma = system: M19-MEL melanoma
UACC-257 melanoma = system: UACC-257 melanoma
SK-MEL-28 melanoma = system: SK-MEL-28 melanoma
SK-OV-3 ovarian = system: SK-OV-3 ovarian
IGROV1 ovarian = system: IGROV1 ovarian
CCRF-CEM leukemia = system: CCRF-CEM leukemia
SN12C renal = system: SN12C renal
786-0 renal = system: 786-0 renal
COLO 205 colon = system: COLO 205 colon
KM12 colon = system: KM12 colon
U251 CNS = system: U251 CNS
SK-MEL-5 melanoma = system: SK-MEL-5 melanoma
LXFL 529 NSCLC = system: LXFL 529 NSCLC
RPMI-8226 leukemia = system: RPMI-8226 leukemia
ACHN renal = system: ACHN renal
SNB-78 CNS = system: SNB-78 CNS
TK-10 renal = system: TK-10 renal
UACC-62 melanoma = system: UACC-62 melanoma
RXF 393 renal = system: RXF 393 renal
HCT-15 colon = system: HCT-15 colon
DMS 273 small cell lung = system: DMS 273 small cell lung
CAKI-1 renal = system: CAKI-1 renal
HOP-92 NSCLC = system: HOP-92 NSCLC
MOLT-4 leukemia = system: MOLT-4 leukemia
A549 NSCLC = system: A549 NSCLC
NCI-H226 lung = system: NCI-H226 lung
HL-60(TB) leukemia = system: HL-60(TB) leukemia
NCI-H522 lung = system: NCI-H522 lung
HS 578T breast = system: HS 578T breast
HCC-2998 colon = system: HCC-2998 colon
BT-549 breast = system: BT-549 breast
MDA-N = system: MDA-N
T-47D breast = system: T-47D breast
SNB-19 CNS = system: SNB-19 CNS
MCF7 breast = system: MCF7 breast
EKVX NSCLC = system: EKVX NSCLC
NCI/ADR-RES ovarian = system: NCI/ADR-RES ovarian
A498 renal = system: A498 renal
MDA-MB-435 = system: MDA-MB-435
PC-3 prostate = system: PC-3 prostate
OVCAR-3 ovarian = system: OVCAR-3 ovarian
MDA-MB-231 breast = system: MDA-MB-231 breast
DU-145 prostate = system: DU-145 prostate

## COc1ccc(C(C#N)NNC(=O)Cc2ccccc2)cc1OC (stereo not drawn)
SF-295 CNS
  TGI: > 100 µM
HCT-116 colon
  TGI: > 100 µM
HT29 colon
  TGI: > 100 µM
SR leukemia
  TGI: > 100 µM
DMS 114 small cell lung
  TGI: > 100 µM
DLD-1 colon
  TGI: > 100 µM
UO-31 renal
  TGI: > 100 µM
OVCAR-4 ovarian
  TGI: > 100 µM
SW-620 colon
  TGI: > 100 µM
OVCAR-8 ovarian
  TGI: > 100 µM
LOX IMVI melanoma
  TGI: > 100 µM
SF-539 CNS
  TGI: > 100 µM
HOP-18 NSCLC
  TGI: > 100 µM
NCI-H23 lung
  TGI: > 100 µM
OVCAR-5 ovarian
  TGI: > 100 µM
NCI-H460 lung
  TGI: > 100 µM
K-562 leukemia
  TGI: > 100 µM
SF-268 CNS
  TGI: > 100 µM
SNB-75 CNS
  TGI: > 100 µM
MALME-3M melanoma
  TGI: > 100 µM
M14 melanoma
  TGI: > 100 µM
HOP-62 NSCLC
  TGI: > 100 µM
SK-MEL-2 melanoma
  TGI: > 100 µM
M19-MEL melanoma
  TGI: > 100 µM
UACC-257 melanoma
  TGI: > 100 µM
SK-MEL-28 melanoma
  TGI: > 100 µM
SK-OV-3 ovarian
  TGI: > 100 µM
IGROV1 ovarian
  TGI: > 100 µM
CCRF-CEM leukemia
  TGI: > 100 µM
SN12C renal
  TGI: > 100 µM
786-0 renal
  TGI: > 100 µM
COLO 205 colon
  TGI: > 100 µM
KM12 colon
  TGI: > 100 µM
U251 CNS
  TGI: > 100 µM
SK-MEL-5 melanoma
  TGI: > 100 µM
LXFL 529 NSCLC
  TGI: > 100 µM
RPMI-8226 leukemia
  TGI: > 100 µM
ACHN renal
  TGI: > 100 µM
SNB-78 CNS
  TGI: > 100 µM
TK-10 renal
  TGI: > 100 µM
UACC-62 melanoma
  TGI: > 100 µM
RXF 393 renal
  TGI: > 100 µM
HCT-15 colon
  TGI: > 100 µM
DMS 273 small cell lung
  TGI: > 100 µM
CAKI-1 renal
  TGI: > 100 µM
HOP-92 NSCLC
  TGI: > 100 µM
MOLT-4 leukemia
  TGI: > 100 µM
A549 NSCLC
  TGI: > 100 µM
NCI-H226 lung
  TGI: > 100 µM
HL-60(TB) leukemia
  TGI: > 100 µM
NCI-H522 lung
  TGI: > 100 µM

## COc1ccc(C2=C(c3ccc(OC)cc3)C(=O)N3CCCC3C2)cc1 (stereo not drawn)
SF-295 CNS
  GI50: 9.26 µM
  TGI: > 100 µM
HCT-116 colon
  GI50: 2.96 µM
  TGI: 32.8 µM
HT29 colon
  GI50: 6.19 µM
  TGI: > 100 µM
SR leukemia
  GI50: > 37.1 µM
  TGI: > 100 µM
HS 578T breast
  GI50: 69.5 µM
  TGI: > 100 µM
UO-31 renal
  GI50: 19.7 µM
  TGI: > 100 µM
HCC-2998 colon
  GI50: 26.4 µM
  TGI: 93.4 µM
OVCAR-4 ovarian
  GI50: 15.5 µM
  TGI: > 100 µM
SW-620 colon
  GI50: 15.4 µM
  TGI: > 100 µM
OVCAR-8 ovarian
  GI50: 10.4 µM
  TGI: > 100 µM
LOX IMVI melanoma
  GI50: 3.87 µM
  TGI: 25.6 µM
SF-539 CNS
  GI50: 7.95 µM
  TGI: 77.1 µM
BT-549 breast
  GI50: 17.1 µM
  TGI: > 89.8 µM
MDA-N
  GI50: 12.2 µM
  TGI: > 100 µM
NCI-H23 lung
  GI50: 41.9 µM
  TGI: > 100 µM
OVCAR-5 ovarian
  GI50: > 83.7 µM
  TGI: > 100 µM
NCI-H460 lung
  GI50: 1.81 µM
  TGI: > 40.9 µM
T-47D breast
  GI50: 28 µM
  TGI: > 100 µM
SNB-19 CNS
  GI50: 45.6 µM
  TGI: > 100 µM
K-562 leukemia
  TGI: > 100 µM
MCF7 breast
  GI50: 12.8 µM
  TGI: > 100 µM
SF-268 CNS
  GI50: 16.4 µM
  TGI: > 100 µM
SNB-75 CNS
  GI50: 15.6 µM
  TGI: > 72.7 µM
MALME-3M melanoma
  GI50: 52.6 µM
  TGI: > 100 µM
M14 melanoma
  GI50: 28 µM
  TGI: > 100 µM
HOP-62 NSCLC
  GI50: 16.5 µM
  TGI: > 100 µM
SK-MEL-2 melanoma
  GI50: 18.3 µM
  TGI: > 100 µM
EKVX NSCLC
  GI50: 30.2 µM
  TGI: > 100 µM
NCI/ADR-RES ovarian
  GI50: 10.3 µM
  TGI: > 100 µM
A498 renal
  GI50: 45.9 µM
  TGI: > 100 µM
UACC-257 melanoma
  GI50: 32.9 µM
  TGI: > 100 µM
SK-MEL-28 melanoma
  GI50: 54.6 µM
  TGI: > 100 µM
SK-OV-3 ovarian
  GI50: 26.4 µM
  TGI: > 100 µM
MDA-MB-435
  GI50: 12.3 µM
  TGI: > 100 µM
IGROV1 ovarian
  GI50: 18.1 µM
  TGI: > 100 µM
PC-3 prostate
  GI50: 12.4 µM
  TGI: > 100 µM
CCRF-CEM leukemia
  GI50: 5.49 µM
  TGI: > 48.2 µM
SN12C renal
  GI50: 22.5 µM
  TGI: > 100 µM
786-0 renal
  GI50: 9.92 µM
  TGI: > 100 µM
COLO 205 colon
  GI50: 7.43 µM
  TGI: > 100 µM
KM12 colon
  GI50: 9.26 µM
  TGI: > 100 µM
U251 CNS
  GI50: 5.99 µM
  TGI: > 100 µM
SK-MEL-5 melanoma
  GI50: 10.1 µM
  TGI: 84.3 µM
OVCAR-3 ovarian
  GI50: 11.7 µM
  TGI: > 100 µM
RPMI-8226 leukemia
  GI50: > 100 µM
  TGI: > 100 µM
ACHN renal
  GI50: 15 µM
  TGI: > 100 µM
TK-10 renal
  GI50: 22.8 µM
  TGI: > 100 µM
MDA-MB-231 breast
  GI50: 25.4 µM
  TGI: > 73.9 µM
UACC-62 melanoma
  GI50: 9.09 µM
  TGI: > 100 µM
RXF 393 renal
  GI50: 17.7 µM
  TGI: > 83.2 µM
HCT-15 colon
  GI50: 0.733 µM
  TGI: > 55.7 µM
CAKI-1 renal
  GI50: 21.1 µM
  TGI: > 100 µM
HOP-92 NSCLC
  GI50: > 95.1 µM
  TGI: > 100 µM
MOLT-4 leukemia
  GI50: 15.5 µM
  TGI: > 100 µM
A549 NSCLC
  GI50: 9.42 µM
  TGI: > 100 µM
NCI-H226 lung
  GI50: 37.1 µM
  TGI: > 100 µM
HL-60(TB) leukemia
  GI50: 4.36 µM
  TGI: 28.4 µM
NCI-H522 lung
  GI50: 14.1 µM
  TGI: 96.8 µM
DU-145 prostate
  GI50: 13.5 µM
  TGI: > 100 µM
